Our source for the GI50 values is patent US20260365670A1, “EGFR INHIBITORS AND USES THEREOF” (DIZAL (JIANGSU) PHARMACEUTICAL CO., LTD., priority 2022, published 2026).

Holding throughout (format): cell-based
Assay [1] deals with Ba/F3 cells expressing EGFR mutations. In words: Cell proliferation assay, Ba/F3 cells expressing EGFR mutations (CellTiter-Glo, 72 hours). Particulars: CellTiter-Glo. The procedure, abridged:
(§1)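 Growth over 72 h was quantified by CellTiter-Glo luminescence, normalised as (G3 − G0)/(DMSO G3 − G0), for PC-9 cells seeded at 500/well and EGFR-mutant Ba/F3 cells at 5000/well in RPMI1640. Compound concentration series added after overnight incubation; GI50 obtained from best-fit curves.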

Another assay has as its system PC-9. As to the kind of experiment: Cell proliferation assay, PC-9 cells (CellTiter-Glo, 72 hours). The conditions noted are these: PC9 cells, CellTiter-Glo, read-out: PC9 GI50. The procedure, abridged:
as §1

For the next assay, the system named is A-431. In words: Cell proliferation GI50, A-431 cells (Table 6). The procedure:
[Worded in the source for another cell line; this cell line is reported under the same test.] Ba/F3 cells expressing EGFR mutations were seeded in 384-well plates at 5000 cells/well in RPMI1640 medium containing […]. PC-9 at 500 cells/well was seeded into 384-well plates in RPMI1640 medium with 10% FBS. After overnight incubation, the assay plates were dosed with compounds at a series of concentrations. Alongside dosing the assay plates, the day 0 plate was processed using CellTiter-Glo® Luminescent Cell Viability Assay (Promega) to measure the number of viable cells (G0). The assay plates were further incubated for 72 hours and the number of viable cells (G3) was measured. The percentage of proliferation was calculated as: […]=100×(G3 value of sample well−G0 value)/(G3 value of DMSO control−G0 value). The concentration of compound producing 50% proliferation inhibition (GI50) was further calculated in best-fit curves using XLFit software. N/A=not available.

[2] abbreviates: BaF3 cells, EGFR DEL19-C797S, read-out: DEL19-C797S/BaF3 GI50.
Setting [3] is: BaF3 cells, EGFR DEL19-T790-C797S, read-out: DEL19-T790-C797S/BaF3 GI50.
[4] abbreviates: BaF3 cells, EGFR L858R, read-out: L858R/BaF3 GI50.
Setting [5] is: BaF3 cells, EGFR L858R-C797S, read-out: L858R-C797S/BaF3 GI50.
[6] abbreviates: BaF3 cells, EGFR L858R-T790-C797S, read-out: L858R-T790-C797S/BaF3 GI50.
Where [7] appears, read: BaF3 cells, EGFR L858R-T790M, read-out: L858R-T790M/BaF3 GI50.
The mark [8] stands for this setting: EGFR DEL19-T790M, read-out: DEL19-T790M GI50.
Where [9] appears, read: Homo sapiens, A-431, A-431 cells.
The mark [10] stands for this setting: Mus musculus, BaF3, 72 h, BaF3 cells, EGFR DEL19-C797S, read-out: DEL19-C797S/BaF3 GI50.
[11] abbreviates: Mus musculus, BaF3, 72 h, BaF3 cells, EGFR DEL19-T790-C797S, read-out: DEL19-T790-C797S/BaF3 GI50.
Where [12] appears, read: Mus musculus, BaF3, 72 h, BaF3 cells, EGFR L858R, read-out: L858R/BaF3 GI50.
The mark [13] stands for this setting: Mus musculus, BaF3, 72 h, BaF3 cells, EGFR L858R-C797S, read-out: L858R-C797S/BaF3 GI50.
Setting [14] is: Mus musculus, BaF3, 72 h, BaF3 cells, EGFR L858R-T790-C797S, read-out: L858R-T790-C797S/BaF3 GI50.
[15] abbreviates: Mus musculus, BaF3, 72 h, BaF3 cells, EGFR L858R-T790M, read-out: L858R-T790M/BaF3 GI50.
[16] abbreviates: Mus musculus, BaF3, 72 h, EGFR DEL19-T790M, read-out: DEL19-T790M GI50.

Each structure is given as a SMILES string. Like-named read-outs stand apart in the source and are kept apart here.

On to `Cn1ncc2c1OCCN1CC3CCC(C3)(C1)n1c(nc3ccc(N4CCN(C5COC5)CC4)cc31)NC(=O)c1cc-2c(=O)n(C)c1` (single isomer, unassigned) [Example A71A], for which the GI50 worked out at 286 nM in assay [1] (setting [2]); 579 nM in assay [1] (setting [3]); 1760 nM in assay [1] (setting [4]); 954 nM in assay [1] (setting [5]); 762 nM in assay [1] (setting [6]); 2410 nM in assay [1] (setting [7]). In addition, the GI50 in assay [1] (setting [8]) is 735 nM; with PC-9, 787 nM; in the assay on A-431 (A-431 cells), 7860 nM.

Turning to `CN1CCN(C2CCN(c3ccc4nc5n(c4c3)C34CCC(CN(CCOc6c(cnn6C)-c6cc(cn(C)c6=O)C(=O)N5)C3)C4)C2)CC1` (single isomer, unassigned) [Example A80B, 15,21-Dimethyl-5-[3-(4-methylpiperazin-1-yl)pyrrolidin-1-yl]-23-oxa-2,9,11,15,20,21,26-heptaazaheptacyclo[24.4.1.1^{1,28}.1^{13,17}.0^{2,10}.0^{3,8}.0^{18,22}]tritriaconta-3,5,7,9,13,17(33),18(22),19-octaene-12,16-dione], the GI50 turned out to be 0.69 nM in assay [1] (setting [2]); 1.3 nM in assay [1] (setting [3]); 0.69 nM in assay [1] (setting [4]); 0.8 nM in assay [1] (setting [5]); 2.5 nM in assay [1] (setting [6]); 2.7 nM in assay [1] (setting [7]). For the same compound, the GI50 in assay [1] (setting [8]) was 1.2 nM; in the assay on PC-9 it was 3.3 nM; in the assay on A-431 (A-431 cells) it was 483 nM.

Regarding `Cn1ncc2c1OCCN1CC3CCC(C3)(C1)n1c(nc3ccc(N4CCC(N5CC(F)C5)C4)cc31)NC(=O)c1cc-2c(=O)n(C)c1` (single isomer, unassigned) [Example A94A1, 5-[3-(3-Fluoroazetidin-1-yl)pyrrolidin-1-yl]-15,21-dimethyl-23-oxa-2,9,11,15,20,21,26-heptaazaheptacyclo[24.4.1.1^{1,28}.1^{13,17}.0^{2,10}.0^{3,8}.0^{18,22}]tritriaconta-3,5,7,9,13,17(33),18(22),19-octaene-12,16-dione], the GI50 in assay [1] (setting [2]) stood at 936 nM; in assay [1] (setting [3]) it was 2960 nM; in assay [1] (setting [4]), 754 nM; in assay [1] (setting [5]), 1800 nM; in assay [1] (setting [6]), 882 nM; in assay [1] (setting [7]), 2650 nM. The GI50 is 2030 nM in assay [1] (setting [8]), 2330 nM with PC-9 and 3540 nM with A-431 (A-431 cells).

Turning to `Cn1ncc2c1OCCN1CC3CCC(C3)(C1)n1c(nc3ccc(N4CCC(N5CC(F)C5)C4)cc31)NC(=O)c1cc-2c(=O)n(C)c1` (single isomer, unassigned) [Example A94A2, 5-[3-(3-Fluoroazetidin-1-yl)pyrrolidin-1-yl]-15,21-dimethyl-23-oxa-2,9,11,15,20,21,26-heptaazaheptacyclo[24.4.1.1^{1,28}.1^{13,17}.0^{2,10}.0^{3,8}.0^{18,22}]tritriaconta-3,5,7,9,13,17(33),18(22),19-octaene-12,16-dione], the GI50 in assay [1] (setting [2]) came out at 1090 nM; in assay [1] (setting [3]), 3940 nM; in assay [1] (setting [4]), 715 nM; in assay [1] (setting [5]), 1480 nM; in assay [1] (setting [6]) it was 634 nM; in assay [1] (setting [7]) it was 2710 nM. For the same compound, the results for the GI50 (in assay [1] (setting [8]); in the assay on PC-9; in the assay with A-431 (A-431 cells)) were 2100 nM, 1940 nM and 1800 nM, respectively.

As for `CN(C)C1CN(c2ccc3nc4n(c3c2)C23CCC(CN(CCOc5c(cnn5C)-c5cc(cn(C)c5=O)C(=O)N4)C2)C3)CC1(F)F` (single isomer, unassigned) [Example A99A], the GI50 in assay [1] (setting [2]) was 966 nM; in assay [1] (setting [3]), 2900 nM; in assay [1] (setting [4]) it was 372 nM; in assay [1] (setting [5]), 1560 nM; in assay [1] (setting [6]), 874 nM; in assay [1] (setting [7]), 2630 nM. The GI50 in assay [1] (setting [8]) came to 1250 nM; in the assay on PC-9 it was 3090 nM; with A-431 (setting [9]), 4930 nM.

With `CN(C)CCN(C)c1ccc2nc3n(c2c1)CCN(CC(F)F)CCOc1c(cnn1C)-c1cc(cn(C)c1=O)C(=O)N3` [Example A4, 10-(2,2-Difluoroethyl)-16-{[2-(dimethylamino)ethyl](methyl)amino}-5,26-dimethyl-7-oxa-4,5,10,13,20,22,26-heptaazapentacyclo[22.3.1.0^{2,6}.0^{13,21}.0^{14,19}]octacosa-1(28),2(6),3,14,16,18,20,24-octaene-23,27-dione], the GI50 in assay [1] (setting [10]) stood at 77 nM; in assay [1] (setting [11]) it was 811 nM; in assay [1] (setting [12]), 56 nM; in assay [1] (setting [13]), 63 nM; in assay [1] (setting [14]), 76 nM; in assay [1] (setting [15]), 585 nM. Also, the GI50 in assay [1] (setting [16]) came to 788 nM; with PC-9 (Homo sapiens, PC-9, 72 h), 183 nM; in the assay on A-431 (setting [9]) it was 2540 nM.

In the case of `CCN1CCOc2c(cnn2C)-c2cc(cn(C)c2=O)C(=O)Nc2nc3ccccc3n2C(C)(C)C1` [Example A7, 10-Ethyl-5,12,12,26-tetramethyl-7-oxa-4,5,10,13,20,22,26-heptaazapentacyclo[22.3.1.0^{2,6}.0^{13,21}.0^{14,19}]octacosa-1(28),2(6),3,14,16,18,20,24-octaene-23,27-dione], the GI50 in assay [1] (setting [10]) was determined as 279 nM; in assay [1] (setting [11]) it was 830 nM; in assay [1] (setting [12]), 1050 nM; in assay [1] (setting [13]), 1160 nM; in assay [1] (setting [14]) it was 976 nM; in assay [1] (setting [15]), 803 nM. Besides, the GI50 was determined as 768 nM in assay [1] (setting [16]); 424 nM with PC-9 (Homo sapiens, PC-9, 72 h); 1410 nM in the assay with A-431 (setting [9]).

As to `Cn1ncc2c1OCCN1CCC(C)(C1)n1c(nc3ccc(N4CCOCC4)cc31)NC(=O)c1cc-2c(=O)n(C)c1` (centres unmarked) [Example A11, 5,13,27-trimethyl-17-(morpholin-4-yl)-7-oxa-4,5,10,14,21,23,27-heptaazahexacyclo[23.3.1.1^{10,13}.0^{2,6}.0^{14,22}.0^{15,20}]triaconta-1(29),2(6),3,15,17,19,21,25-octaene-24,28-dione], the GI50 was 666 nM in assay [1] (setting [10]); 1750 nM in assay [1] (setting [11]); 2690 nM in assay [1] (setting [12]); 2250 nM in assay [1] (setting [13]); 2150 nM in assay [1] (setting [14]); 1720 nM in assay [1] (setting [15]). The GI50 stood at 1790 nM in assay [1] (setting [16]); 903 nM with PC-9 (Homo sapiens, PC-9, 72 h); 2610 nM with A-431 (setting [9]).

Turning to `C[C@@H]1CCCOc2c(cnn2C)-c2cc(cn(C)c2=O)C(=O)Nc2nc3ccc(N4CC5CN(C)CC5C4)cc3n2C1` (some centres unmarked) [Example A30], the GI50 was 2.3 nM in assay [1] (setting [10]); 3.6 nM in assay [1] (setting [11]); 13 nM in assay [1] (setting [12]); 11 nM in assay [1] (setting [13]); 13 nM in assay [1] (setting [14]); 24 nM in assay [1] (setting [15]). Further, the GI50 came out at 15 nM in assay [1] (setting [16]); 17 nM with PC-9 (Homo sapiens, PC-9, 72 h); 719 nM with A-431 (setting [9]).

`C[C@@H]1CCCOc2c(cnn2C)-c2cc(cn(C)c2=O)C(=O)Nc2nc3ccc(N4CC5CC4CN5C)cc3n2C1` (some centres unmarked) [Example A31]: the GI50 in assay [1] (setting [10]) is 2.3 nM; in assay [1] (setting [11]), 3.4 nM; in assay [1] (setting [12]) it was 25 nM; in assay [1] (setting [13]) it was 10 nM; in assay [1] (setting [14]) it was 13 nM; in assay [1] (setting [15]), 30 nM. Besides, the GI50 was determined as 35 nM with PC-9 (Homo sapiens, PC-9, 72 h) and 790 nM in the assay on A-431 (setting [9]).

With `C[C@@H]1CCCOc2c(cnn2C)-c2cc(cn(C)c2=O)C(=O)Nc2nc3ccc(N4CC5CCN(C)C5C4)cc3n2C1` (some centres unmarked) [Example A32], the GI50 in assay [1] (setting [10]) worked out at 0.43 nM; in assay [1] (setting [11]) it was 1.5 nM; in assay [1] (setting [12]) it was 3 nM; in assay [1] (setting [13]), 2.8 nM; in assay [1] (setting [14]), 2.9 nM; in assay [1] (setting [15]), 9.1 nM. The GI50 in assay [1] (setting [16]) is 3.8 nM; in the assay with PC-9 (Homo sapiens, PC-9, 72 h), 7.3 nM; in the assay on A-431 (setting [9]), 248 nM.
